In patent US10214491B2, “Activators and therapeutic applications thereof” (THE JOHNS HOPKINS UNIVERSITY, priority 2007, dated 2019):
Entries after “also recorded” stand apart in the source; their conditions may differ.

Key:
[1] = system: A375 melanoma (WTp53); assay: WST-1 cell viability assay, A375; format: cell-based; conditions: for IC50: A375 melanoma (WTp53), three days, WST-1
Description: (§1) The effect of the compounds selected using the screening assay on the viability of several tumor cell lines as well as diploid cell lines and cell strains was studied. Cells were plated in 96-well plates at a density of 10,000 cells/100 μL/well and were incubated overnight. The following day compound dilutions ranging from 0 to 40 μM were applied to the cells in triplicate and the cells were incubated with the compounds for three days. Cell viability was assayed using the WST-1 cell proliferation reagent (Roche Diagnostics, Germany) The WST-1 reagent was diluted 1:10 in cell culture media and 100 μL of the reagent dilution was applied onto cells followed by 1 hour incubation at +37° C. The specific absorbance was measured at 450 nm and a reference absorbance was measured at 690 nm. […] Analysis for Protein Levels

[2] = system: p53DsRed reporter in PG3/9 melanoma cells (A375 clone); assay: p53DsRed reporter activation assay (in vitro p53 activity assay); format: cell-based; conditions: for EC50: Homo sapiens, A-375, PG3/9 melanoma cells, 24 hours, read-out: effective concentration (EC50), p53DsRed reporter activation; for fraction of p53-reporter activated cells at high concentrations: apparently due to excessive cell death
Description: The ability of the compounds to activate p53 was analyzed using a cell-based assay. To establish the assay, a stable cell transfectant expressing a p53-responsive reporter was generated. A375 melanoma cell line (ATCC CRL-1619) was transfected with a vector containing the p53 consensus element 13x repeat (13XRE) (Kern et al., 1991) cloned to a DsRed Express reporter vector (Clontech) to yield the vector “PG13DsRed”, hereafter termed as “p53DsRed”. […] The cell clone PG3/9 was used in the screen.
The assay was carried out in a 96-well format and all plate handlings were done using liquid handling robots (Thermo CRS, Thermo Electron Corporation; Biomek FX, Beckman Coulter and Hamilton STAR, Hamilton Microlab). Cells were plated at 10,000 cells/100 μL/well onto 96-well ViewPlates (Packard) and incubated overnight at +37° C. and 5% CO2. Small molecule compound chemical libraries were purchased and diluted to dimethylsulfoxide (DMSO) at 10 mM concentration. The compounds were pin-transferred to plain media at approximately 3 μM concentration either as single (one compound/one well) or pools of compounds (two compounds/one well). The growth media was removed and replaced with media with the test compounds followed by incubation of the cells for 24 h at +37° C. and 5% CO2. […] Following the incubation, the cells were washed with phosphate buffered saline and fixed with paraformaldehyde (PFA, 4%, 25 min, RT) and cell nuclei were stained with Hoechst 33342 (Molecular Probes, 4 μg/mL, 2 min, RT).
The fluorescence signals of Hoechst 33342 and DsRed reporter expression in the fixed cells were analyzed using ArrayScan 4.5 high-content screening platform (Cellomics) including an inverted microscope (Zeiss 200M) with 10× objective (Zeiss), Omega XF93 filter (Omega), ORCA-AG CCD camera (Hamamatsu). The algorithm used for image acquisition and analysis was Target Activation Bioapplication (Cellomics), which was set to analyse the total number of cells and the percentage of p53 reporter positive cells termed as “responders”. For each well, four images on both fluorescence channels were acquired corresponding to approximately 1700 cells in mock-treated wells. The mean number of responders was calculated for each well, and compounds causing reporter activation for more than two times the mean number of responders in the mock treated cells in each plate were regarded as hits.
In the secondary screen the hits were collected and tested over 100 nM to 10 μM concentration range. The compound treatment time, cell fixations and stainings as well as fluorescence signal detection was as described above. Compounds providing consistent p53DsRed reporter activation at low μM concentration range were selected for further testing. The effective concentration 50 (EC50) was calculated using the following formula: […]

[3] = system: p53, Mdm2 and p21 levels in A375 melanoma cells; assay: Immunoblotting and immunofluorescence for p53, Mdm2 and p21 levels; format: cell-based; conditions: A375, 24 hours, 5 μM
Description: To study the effect of compounds on endogenous protein levels, A375 melanoma cells were treated with the compounds for 24 hours. Cellular lysates were prepared in lysis buffer containing 0.5% NP-40 with proteinase inhibitors. Protein (20-30 μg) was separated by sodium dodecyl sulphate-polyacrylamide gel electrophoresis (SDS-PAGE) followed by transfer to PVDF membrane (Immobilon™-P, Millipore, Bedford, Mass., USA). Immunoblotting was carried out using DO-1 antibody for p53, 2A10 for Mdm2 and anti-p21 (Becton Dickinson) to detect p21, followed by secondary antibodies conjugated with horseradish peroxidase (p53) or biotin followed by streptavidin-horseradish peroxidase (Mdm2 and p21) after which proteins were detected with enhanced chemiluminescence (ECL, Amersham Life Sciences). Equal protein loading was verified using GAPDH (p9.B.88, Europa Bioproducts Ltd, UK) as a protein loading control.
(§2) Immunofluorescence staining was carried out to determine the correct localisation of p53 and to detect H2AX phosphorylation indicative of genotoxic stress. Cells were treated with the compounds and fixed in paraformaldehyde (3.5 PFA, 25 min RT). The coverslips were permeabilised in 0.5% NP-40 and blocked in 3% bovine serum albumin (BSA). p53 was detected by staining with FL-393 antibody (Santa Cruz, 1:50, 1 h at +37° C.) followed by Alexa-594 conjugated secondary antibody (Molecular Probes, 1:200, 1 h at +37° C.), phospho-H2AX was detected by staining with anti-H2AX (P-Ser-139) antibody (Upstate, 1:200 1 h at +37° C.) followed by Alexa-488 conjugated secondary antibody (Molecular Probes, 1:200, 1 h at +37° C.). Nuclei were stained with Hoechst 33342. Images were captured using the Zeiss Axioplan fluorescence microscope equipped with Zeiss AxioCam HRc CCD-camera and AxioVision 4.5 software using 40×, NA=0,75 objective, Chroma 31000, Chroma41001 and 41004 filters for Hoechst, Alexa488 and Alexa594, respectively.

[4] = system: RPMI7951 (MUTp53); assay: WST-1 cell viability assay, RPMI-7951; format: cell-based; conditions: three days
Description: as §1

[5] = system: WS-1 diploid fibroblast; assay: WST-1 cell viability assay, WS-1; format: cell-based, human; conditions: three days
Description: as §1

[6] = system: Human intestinal endothelial cells; assay: WST-1 cell viability assay, intestinal endothelial cells; format: cell-based; conditions: three days
Description: as §1

[7] = system: A375 melanoma cells; assay: Flow cytometry cell cycle and apoptosis analysis; format: cell-based; conditions: A375, three days at 10 μM or six days at 5 μM
Description: Cell cycle analysis and cellular apoptosis was assayed with flow cytometry (LSR, Beckton Dickinson). Cells were treated with the compounds and both floating and adherent cells were harvested and fixed in 70% ethanol at −20° C. followed by staining of DNA with propidium iodide. A total of 10,000 counts were collected and data was analysed using ModFit LT 3.1 software. Cells present in sub-G1 population were regarded as apoptotic.

[8] = system: normal human primary melanocytes; assay: WST-1 cell viability assay, melanocytes; format: cell-based; conditions: Melanocyte, three days
Description: as §1

[9] = In vivo toxicity tests; conditions: mice; for acute or chronic toxicities based on histological HE-stainings: i.p., 5, 10 and 20 mg/kg three times a week for three weeks; for toxicity by weight curves, macroscopical pathologies, hematoxylin-eosin staining of tissues: i.p., 5, 10 and 20 mg/kg, 9 doses/3 weeks
Description: Acute and chronic toxicity of the compounds was tested on FVB/N mice. Female mice of 4-6 weeks old were purchased from Harlan and 2 animals were used per compound dose. The mice were injected intraperitoneally with the compounds three times a week for three weeks in 30 microL DMSO. Two animals received vehicle only (=30 μL DMSO). The animals were weighed prior to injections and were monitored for any signs of toxicity, distress or unusual behaviour. The animals were sacrificed three days after receiving the final injection. The liver, kidney, spleen, small intestine and thymus were excised and fixed in 4% paraformaldehyde overnight, and processed into paraffin-blocks. Haematoxylin-eosin staining (HE staining) of the tissues was performed using standard immunohistological techniques.

[10] = system: phosphorylation of histone H2AX on serine-139 (γH2AX) in A375 melanoma cells; assay: Phospho-H2AX immunofluorescence (genotoxic stress); format: cell-based; conditions: A375, 5 μM, 24 hours
Description: as §2

[11] = system: BC3-luc pleural effusion lymphoma cells; assay: Orthotopic xenograft model of pleural effusion lymphoma; format: in vivo; conditions: NOD-SCID mice, 20 mg/kg i.p. seven times
Description: An orthotopic xenograft model of pleural effusion lymphoma was used to assess the anti-tumor activities of compounds 15, 21 and 22. Female NOD-SCID mice (Charles River, France) were injected intraperitoneally with pleural effusion lymphoma cells carrying a stable NF-kappaB regulated luciferase reporter (BC3-luc cells) (Keller et al., 2006). The tumors were allowed to establish for three days after which the mice were imaged and divided into treatment (groups 4-5 mice per group). The compound treatments were initiated on day four. The mice received 2 mg/kg (cmp21) or 20 mg/kg (cmp15 and 22) every other/third day for seven times via i.p. injections, control mice received DMSO only. The mice were imaged prior to each compound injection. Imaging was carried out with Xenogen In Vivo Imaging System (IVIS), D-luciferin (Synchem OHG, Germany) was injected intraperitoneally (100 mg/kg) 10-15 min prior to each imaging. Quantitation was done using Igor Pro Carbon analysis software, bioluminescence was quantitated and plotted as total flux within a given ROI.

[12] = system: B-cell lymphoma (Kaposi's sarcoma herpes virus-infected pleural effusion lymphoma) cells; conditions: cited from earlier work

Row | Compound | IC50 ([1]; Homo sapiens, A-375, 72 h) | EC50 [2] | IC50 ([4]; Homo sapiens, RPMI-7951, 72 h) | IC50 ([5]; Homo sapiens, 72 h) | IC50 ([6]; Endothelial cell, 72 h) | cell cycle / apoptosis phenotype [7] | IC50 ([8]; Homo sapiens, 72 h) | acute or chronic toxicities based on histological HE-stainings [9] | toxicity by weight curves, macroscopical pathologies, hematoxylin-eosin staining of tissues [9] | other results
1 | COc1cccc2c(N)c3c(cnn3C)nc12 [Compound 1, 5-methoxy-1-methylH-pyrazolo[4,3-b]quinolin-9-amine] | 4.3 µM | 3.3 µM | 14.7 µM | 10.4 µM | 13.1 µM | G2-phase arrest and apoptosis | 30.4 µM |  |  | fold difference IC50 (A375)/ IC50 (WS-1) ([1]; A375 melanoma versus WS-1 normal cells): 2.4 fold; fraction of p53-reporter activated cells at high concentrations [2]: decrease in the fraction of p53-reporter activated cells; Mdm2 induction [3]: most prominent
2 | CN(C)CCCNc1nn2c(=O)c3ccccc3nc2c2ccccc12 [Compound 7] | 3 µM | 6.6 µM | 16.8 µM | 18.1 µM | 19.6 µM | imminent G2-phase arrest and increased the apoptotic fraction of the cells | 32.4 µM | No acute or chronic toxicities were observed | did not show any apparent toxicity | cellular γH2AX response (genotoxic stress) [10]: induces genotoxic stress; also recorded: induced a cellular γH2AX response
3 | CCOC(=O)c1cnc2c(C)cc(C)cc2c1NCCCN(C)C [Compound 9, ethyl 4-(3-dimethylaminopropylamino)-6,8-dimethyl-quinoline-3-carboxylate] | 6.1 µM | 4.6 µM | 17.8 µM | 15.7 µM | 19.6 µM | G1-phase arrest | > 40 µM | No acute or chronic toxicities were observed | did not show any apparent toxicity | Mdm2 induction [3]: most prominent
4 | Cc1sc2nc3c4ccccc4c(NCCCN(C)C)nn3c(=O)c2c1C [Compound 15] |  | 5.4 µM |  |  |  |  |  | No acute or chronic toxicities were observed | did not show any apparent toxicity | cellular γH2AX response (genotoxic stress) [10]: induces genotoxic stress; also recorded: induced a cellular γH2AX response; inhibition of tumor cell growth (bioluminescence) [11]: noticeable inhibition of the tumor cell growth
5 | CCOc1ccc(C2=CC(c3cc(OC)c(OC)c(OC)c3)n3ncnc3N2)cc1 (stereo not drawn) [Compound 20, 5-(4-ethoxyphenyl)-7-(3,4,5-trimethoxyphenyl)-4,7-dihydro-[1,2,4]triazolo[1,5-α]pyrimidine] |  | 0.6 µM |  |  |  |  |  |  |  | 
6 | Cc1cc(C)c2c(N)c3cccc(C)c3nc2n1 [Compound 23, 2,4,9-trimethylbenzo[b]-1,8-naphthyridin-5-amine] |  | 2.1 µM |  |  |  |  |  |  |  | fraction of p53-reporter activated cells at high concentrations [2]: decrease in the fraction of p53-reporter activated cells
7 | COc1ccc(C2=N[C@@H](c3ccc(Cl)cc3)[C@@H](c3ccc(Cl)cc3)N2C(=O)N2CCNC(=O)C2)c(OC(C)C)c1 [Nutlin, nutlin-3a, reference compound] |  |  |  |  |  |  |  |  |  | IC50 [1]: 7.2 µM; IC50 [4]: > 40 µM; B-cell lymphoma cell killing ([12]; in vitro and in vivo mouse models): highly effective agent inducing B-cell lymphoma; adverse side-effects ([12]; mouse): does not cause any adverse side-effects; IC50 [5]: 20.6 µM; IC50 [6]: 10.7 µM; IC50 [8]: > 40 µM
